Assay results from patent US6566338B1, “Caspase inhibitors for the treatment and prevention of chemotherapy and radiation therapy induced cell death” (Cytovia, Inc., priority 1999, dated 2003).

Legend:
Jurkat T leukemia cells = experiment: Propidium iodide uptake assay of apoptosis induced by chemotherapeutic agents or UV irradiation in Jurkat T cells; format: cell-based; settings: 18 h
Description: Jurkat T leukemia cells were grown in RPMI 1640 media (Life Technologies, Inc.)+10% FCS (Sigma Chemical Company) in a 5% CO2 -95% humidity incubator at 37° C., and maintained at a cell density between 4 and 8×10^5 cells/ml. 1×10^6 cells were treated with Doxorubicin (1 μM) or Paclitaxel (20 μM) or UV irradiation (40 J/m^2) with or without the caspase inhibitor Z-VD-fmk (10 μM) and incubated at 37° C. for 18 h. As a control, cells were also incubated with DMSO. At 18 h cells were observed under phase contrast microscopy to visualize any morphological changes induced by the apoptotic stimuli. Cells were assessed for viability by a propidium iodide uptake assay. Briefly, 20 μl of propidium solution containing 100 μg/ml of propidium iodide was added to 200 μl of cells and transferred to 12×75mm polystyrene tubes and analyzed on a flow cytometer. All flow cytometry analyses were performed on FACScalibur (Becton Dickinson) using CellQuest analysis software.
FIGS. 1A-C depict photographs of Jurkat cells: FIG. 1A, DMSO treated control cells; FIG. 1B, cells treated with doxorubicin (1 μM); FIG. 1C, cells treated with doxorubicin (1 μM) and Z-VD-fmk (10 μM). FIG. 1D depicts a bar graph showing percentage of cell apoptosis as measured by a propidium iodide uptake assay: a, DMSO treated control cells; b, cells treated with doxorubicin; c, cells treated with doxorubicin and Z-VD-fmk.
FIGS. 2A-C depict photographs of Jurkat cells: FIG. 2A, DMSO treated control cells; FIG. 2B, cells treated with paclitaxel (20 μM); FIG. 2C, cells treated with paclitaxel (20 μM) and Z-VD-fink (10 μM). FIG. 2D depicts a bar graph showing percentage of cell apoptosis as measured by a propidium iodide uptake assay: a, DMSO treated control cells; b, cells treated with paclitaxel; c, cells treated with paclitaxel and Z-VD-fink.
FIGS. 3A-C depict photographs of Jurkat cells: FIG. 3A, DMSO treated control cells; FIG. 3B, cells treated with UV irradiation (40 J/m^2); FIG. 3C, cells treated with UV irradiation (40 J/m2) and Z-VD-fmk (10 μM). […]

[1] = system: oral mucositis induced by acute irradiation in hamsters; experiment: Radiation-induced oral mucositis in hamsters (acute radiation model, mucositis scoring); format: in vivo, Golden Syrian hamsters; settings: for days with ulcerations (animal days with mucositis score of 3 or more) / daily mucositis scores, rank sum analysis vs vehicle control / reduction in ulceration vs vehicle control: day −2 to day 16; for days with ulcerations (animal days with mucositis score of 3 or more): vehicle control 56 days
Description: A hamster model of chemotherapy-induced mucositis and, more recently, a model of radiation-induced mucositis has been developed (Sonis S. et al. Oral Surg. Oral. Med. Oral Pathol. 69:437-443 (1990) and Sonis S. et al. Cancer, 85:2103-13 (1999)). In the latter model, specific doses of acute radiation are targeted to the designated mucosa, with protection of other areas by a customized lead shield.
The objective of this study was to assess the effect of the topical and IP administration of (3R,S)-5-fluoro-3-[(2S)-3-methyl-1-oxo-2-(phenylcarbam-oyloxy)butyl]amino-4-oxo-pentanoic acid (a caspase inhibitor described in U.S. Application Ser. Nos. 60/151,077 and 60/158,373), in attenuating the development and progress of oral mucositis induced by acute irradiation in hamsters. Mucositis scores in hamsters receiving different doses of the compound were compared to those in hamsters receiving vehicle control, in order to detect statistically significant differences in the onset, duration or severity of the disorder.
Thirty-two (32) hamsters were randomly divided into four treatment groups with eight (8) animals per group. Each group was assigned a different treatment as follows:
Group 1: Vehicle control—topical vehicle control, tid (3 times daily), day −2 to day 16.
Group 2: Test compound at 20 mg/kg, IP once per day, day −2 to day 16.
Group 3: Test compound at 0.36 mg/ml (0.2 ml), topical, tid, day −2 to day 16.
Group 4: Test compound at 0.072 mg/ml (0.2 ml), topical, tid, day −2 to day 16.
viii) Starting on day 6 and continuing every second day thereafter (days 8, 10, 12, 14, 16, 18, 20, 22, 24, 26 & 28), each animal was photographed and evaluated for mucositis scoring.
dose of radiation (35 Gy/dose) was administered to all animals on Day 0. Radiation was generated with a 250 kilovolt potential (15-mA) source at a focal distance of 50 cm, hardened with a 0.35 mm Cu filtration system. Irradiation targeted the left buccal pouch mucosa at a rate of 121.5 cGy/minute. Prior to irradiation, animals were anesthetized with an intraperitoneal injection of sodium pentobarbital (80 mg/kg). The left buccal pouch was everted, fixed and isolated using a lead shield.
(§1) Topical dosing of animals was done three times per day. For topical treatments, a needleless tuberculin syringe, containing 0.2 ml of the test compound in 0.05M Tris (pH 8.0), was inserted into the left cheek pouch and the drug deposited into the pouch. Intraperitoneal injections of the compound were done once a day at a dose of 20 mg/kg and a drug concentration of 3-6 mg/ml in 0.05M Tris (pH 8.0). Dosing began on day −2 for all groups. In all groups treatment continued until day 16.
Mucositis Evaluation The mucositis score, weight change and survival were measured as outcomes in this study. For the evaluation of mucositis, the animals were anesthetized with inhalation anesthetics, and the left pouch everted. Mucositis was scored visually by comparison to a validated photographic scale, ranging from 0 for normal, to 5 for severe ulceration (clinical scoring). In descriptive terms, this scale is defined as follows: […]
A score of 1-2 is considered to represent a mild stage of the disease, whereas a score of 3-5 is considered to indicate moderate to severe mucositis. Following visual scoring, a photograph was taken of each animal's mucosa using a standardized technique. At the conclusion of the experiment, all films were developed and the photographs randomly numbered. At least two independent trained observers graded the photographs in blinded fashion using the above described scale (blinded scoring).

[2] = Weight change and survival in the hamster mucositis study; format: in vivo, Golden Syrian hamsters; settings: at the doses used: 20 mg/kg IP; 0.36 and 0.072 mg/ml topical
Description: i) Every day for the period of the study (day −2 to day 28), each animal was weighed and its survival recorded (to accommodate the schedules of the study site weights were taken every other day starting on day 17 and continuing to day 28).
Male Golden Syrian hamsters (Charles River Laboratories or Harlan Sprague Dawley), aged 5 to 6 weeks, with body weights of approximately 90 g at project commencement, were used. Animals were individually numbered using an ear punch and housed in small groups of 2 animals per cage. Animals were acclimatized for at least one week prior to project commencement. During this period, the animals were observed daily in order to reject animals that present poor condition.
as §1, with “Dosing began on day −2 for all groups. In all groups treatment continued until day 16.” left out
Mucositis Evaluation The mucositis score, weight change and survival were measured as outcomes in this study. […] Mucositis was scored visually by comparison to a validated photographic scale, ranging from 0 for normal, to 5 for severe ulceration (clinical scoring). […]

| SMILES | doxorubicin induced cell death in Jurkat cells (Jurkat T leukemia cells; Doxorubicin 1 μM, Z-VD-fmk 10 μM, FIGS. 1A-D) | paclitaxel induced cell death in Jurkat cells (Jurkat T leukemia cells; Paclitaxel 20 μM, Z-VD-fmk 10 μM, FIGS. 2A-D) | UV irradiation induced cell death in Jurkat cells (Jurkat T leukemia cells; UV irradiation 40 J/m^2, Z-VD-fmk 10 μM, FIGS. 3A-D) | days with ulcerations (animal days with mucositis score of 3 or more) ([1]; 0.072 mg/ml (0.2 ml) topical tid) [days] | daily mucositis scores, rank sum analysis vs vehicle control ([1]; 0.072 mg/ml topical tid) | reduction in ulceration vs vehicle control ([1]; 0.072 mg/ml topical tid, p=0.061, not significant) [%] | days with ulcerations (animal days with mucositis score of 3 or more) ([1]; 0.36 mg/ml (0.2 ml) topical tid) [days] | daily mucositis scores, rank sum analysis vs vehicle control ([1]; 0.36 mg/ml topical tid) | reduction in ulceration vs vehicle control ([1]; 0.36 mg/ml topical tid, p<0.001) [%] | daily mucositis scores, rank sum analysis vs vehicle control ([1]; 20 mg/kg IP once per day) | reduction in ulceration vs vehicle control ([1]; 20 mg/kg IP once per day, p=0.068, not significant) [%] | days with ulcerations (animal days with mucositis score of 3 or more) ([1]; 20 mg/kg IP once per day) [days] | onset of ulceration ([1]; day 0 to day 16, all treatment groups) | systemic toxicity (mortality due to the treatment) [2] |
| --- | --- | --- | --- | --- | --- | --- | --- | --- | --- | --- | --- | --- | --- | --- |
| CC(C)[C@H](NC(=O)OCc1ccccc1)C(=O)NC(CC(=O)O)C(=O)CF (some centres unmarked) [Z-VD-fmk] | blocks doxorubicin induced cell death | blocks paclitaxel induced cell death | blocks UV irradiation induced cell death | – | – | – | – | – | – | – | – | – | – | – |
| CC(C)[C@H](OC(=O)Nc1ccccc1)C(=O)NC(CC(=O)O)C(=O)CF (stereo partly drawn) [test compound, (3R,S)-5-Fluoro-3-[(2S)-3-methyl-1-oxo-2-(phenylcarbamoyloxy)butyl]amino-4-oxo-pentanoic Acid] | – | – | – | 42 | Significance was achieved only on day 18 | 25 | 27 | significant reduction of mucositis on days 18, 20, 22 & 26 | 51.8 | significant reduction in mucositis severity on days 20 and 22 | 24.8 | 39 | no apparent reduction in the onset of ulceration | no systemic toxicity |
